Measurements: patent publication US20100174066A1, “PROCESS FOR PREPARING CRYSTALLINE FORM I OF OLANZAPINE” (priority 2005, published 2010)

Assay: Heat sensitivity of olanzapine Form I wet crystals dried in an air tray drier; Form II content quantified by XRPD
Assay type: physicochemical
Conditions: 8 hours, LOQ about 0.5% by weight
Method: Olanzapine Form I wet crystals obtained by following the process similar to that given in Example 1 were taken and dried at different temperatures in an air tray drier for 8 hours to check the impact on the crystalline purity of Form I obtained. The results are tabulated below in Table 1:
497.5 mg of olanzapine Form I and 2.5 mg of olanzapine Form II (weight ratio of olanzapine Form Ito Form II of 99.5:0.5) were weighed and mixed with 50.0 mg of lithium fluoride. The mixture was mixed and ground three times using a mortar and pestle made of agate to get a homogeneous fine powder. A maximum quantity of the finely ground sample was packed in a sample holder and this was used as the standard for powder X-ray diffraction analysis.
500 mg of olanzapine Form I test sample was weighed and mixed with 50 mg of lithium fluoride. The mixture was mixed and ground three times using a mortar and pestle made of agate to get a homogeneous fine powder. A maximum quantity of the finely ground sample was packed in a sample holder and this was used as the test sample for the analysis.
The standard and the test sample were analyzed and the intensity at 8.60° (2θ) in the diffractogram of the test sample was compared with respect to that of the 0.5% standard. If the test sample intensity at 8.60° (2θ) is more than that of the 0.5% standard, then the presence of Form II in Form I is more than 0.5%. If the test sample intensity at 8.60° (2θ) is less than that of the 0.5% standard, then the presence of Form II in Form I is less than 0.5%.

Cc1cc2c(s1)Nc1ccccc1N=C2N1CCN(C)CC1 [Olanzapine Form I, 2-methyl-4-(4-methyl-1-piperazinyl)-10H-thieno[2,3-b][1,5]benzodiazepine]
Form II content (%) (drying temperature 60 °C): Less than 0.5% | Form II content (%) (drying temperature 75-80 °C): Less than 0.5% | Form II content (%) (drying temperature 100 °C): Less than 0.5% | Form II content (%) (drying temperature 125 °C): More than 0.5% | Form II content (%) (drying temperature 150 °C): More than 0.5% | Form II content (%) (drying temperature 180 °C): More than 0.5%
